target: T1, ferroportin (Fpn) (Mus musculus, UniProt Q9JHI9); assay: Hepcidin Internalization Assay (J774); type: cell-based; settings: IC50 of unlabeled hepcidin in the hepcidin internalization assay, J774 cells, TMR-hepcidin 25 nM
T1 construct: host or cells: J774 mouse macrophage cell line, Fe(III)-NTA induced
T1 sequence (Q9JHI9 1-570): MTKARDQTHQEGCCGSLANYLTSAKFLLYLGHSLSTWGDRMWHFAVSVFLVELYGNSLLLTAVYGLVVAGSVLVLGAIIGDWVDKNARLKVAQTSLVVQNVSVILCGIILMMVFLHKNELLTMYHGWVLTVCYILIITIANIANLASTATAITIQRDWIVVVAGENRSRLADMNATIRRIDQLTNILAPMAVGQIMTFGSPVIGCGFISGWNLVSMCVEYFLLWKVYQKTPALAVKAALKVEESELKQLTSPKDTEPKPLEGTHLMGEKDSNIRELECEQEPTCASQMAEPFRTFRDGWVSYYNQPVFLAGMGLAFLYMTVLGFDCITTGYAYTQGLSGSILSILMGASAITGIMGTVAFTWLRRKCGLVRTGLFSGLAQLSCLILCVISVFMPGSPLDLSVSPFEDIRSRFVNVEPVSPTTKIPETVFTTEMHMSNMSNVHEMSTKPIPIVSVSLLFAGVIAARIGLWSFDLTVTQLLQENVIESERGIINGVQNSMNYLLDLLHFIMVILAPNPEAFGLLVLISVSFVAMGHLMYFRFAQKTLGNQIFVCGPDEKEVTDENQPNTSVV
How it was run: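 Mouse J774 macrophages, loaded overnight with 200 μM Fe(III)NTA, incubated 2 h at 37 °C with test compounds and TMR-labeled hepcidin. Cell-associated TMR fluorescence, a proxy for hepcidin binding to Fpn and internalization, quantified by automated imaging with Hoechst nuclear counterstain after fixation; IC50 from log(inhibitor) vs. response fit, triplicates.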

Compound	IC50 [nM]
CC[C@H](C)[C@@H]1NC(=O)[C@@H](NC(=O)[C@@H](NC(=O)[C@@H]2CCCN2C(=O)[C@H](Cc2ccccc2)NC(=O)[C@H](Cc2c[nH]cn2)NC(=O)[C@@H](NC(=O)[C@@H](N)CC(=O)O)[C@@H](C)O)[C@@H](C)CC)CSSC[C@@H](C(=O)N[C@@H](CCCCN)C(=O)N[C@H](C(=O)O)[C@@H](C)O)NC(=O)[C@@H]2CSSC[C@@H]3NC(=O)[C@@H]4CSSC[C@H](NC(=O)[C@H](Cc5ccccc5)NC1=O)C(=O)N[C@@H](CSSC[C@H](NC(=O)[C@H](CCCCN)NC(=O)[C@H](CO)NC(=O)[C@H](CCCNC(=N)N)NC(=O)[C@H](Cc1c[nH]cn1)NC3=O)C(=O)NCC(=O)N[C@@H](CCSC)C(=O)N2)C(=O)NCC(=O)N4 [hepcidin, reference compound]	15 ± 11

same assay, conditions: average of multiple measurements; inhibition of TMR-hepcidin (25 nM) internalization into J774 cells; read-out: J774 IC50

Compound	IC50 [nM]
O=C(NCc1ccccn1)c1csc(CCNCc2nc3ccccc3[nH]2)n1 [Example 12]	80
O=C(NC1CCc2cccnc21)c1csc(CCNCc2nc3ccccc3[nH]2)n1 (stereo not drawn) [Example 39]	70
O=C(NCc1ncccc1Cl)c1csc(CCNCc2nc3ccccc3[nH]2)n1 [Example 82]	6
Cc1cnccc1CNC(=O)c1csc(CCNCc2nc3ccccc3[nH]2)n1 [Example 90]	25
O=C(NCc1ncccc1F)c1csc(CCNCCc2nc3ccccc3[nH]2)n1 [Example 94]	12
O=C(NCc1ncccc1F)c1cnn(CCNCCc2nc3ccccc3[nH]2)c1 [Example 111]	35
O=C(NCc1ncc(F)cc1F)c1csc(CCNCCc2nc3ccccc3[nH]2)n1 [Example 116]	1000
O=C(NCc1ncccc1F)c1csc(CNCCc2nc3ccccc3[nH]2)n1 [Example 118]	103
O=C(NCc1ncccc1F)c1csc(CCNCCc2nc3cc(F)ccc3[nH]2)n1 [Example 120]	34
O=C(NCc1cccnn1)c1csc(CCNCCc2nc3ccccc3[nH]2)n1 [Example 122]	26
O=C(NCc1ncccc1F)c1coc(CCNCc2nc3ccccc3[nH]2)n1 [Example 126]	96
O=C(NCc1ncccc1F)c1coc(CCNCCc2nc3ccccc3[nH]2)n1 [Example 127]	9
O=C(NCc1ncccc1F)c1csc(CCCNCc2nc3ccccc3[nH]2)n1 [Example 134]	377
O=C(NCc1ccccn1)c1coc(CCNCc2nc3ccccc3[nH]2)n1 [Example 137]	514
O=C(NCc1ncccc1Cl)c1cnn(CCNCc2nc3ccccc3[nH]2)c1 [Example 138]	179
O=C(NCc1ncccc1Cl)c1coc(CCNCc2nc3ccccc3[nH]2)n1 [Example 141]	167
O=C(NCc1ncccc1Cl)c1cnn(CCNCCc2nc3ccccc3[nH]2)c1 [Example 144]	12
O=C(NCc1ncccc1F)c1nc(CCNCc2nc3ccccc3[nH]2)sc1Cl [Example 151]	111

Compound	IC50 [nM]
O=C(NCc1ncccc1F)c1csc(CCN(CCc2nc3ccccc3[nH]2)CCc2nc3ccccc3[nH]2)n1 [Example 152]	4
O=C(NCc1ncccc1F)c1nc(CCNCCc2nc3ccccc3[nH]2)sc1Cl [Example 154]	8.3
O=C(NC1CCc2cccnc21)c1csc(CCNCCc2nc3ccccc3[nH]2)n1 (stereo not drawn) [Example 158]	47
O=C(NCc1cccnn1)c1nc(CCNCc2nc3ccccc3[nH]2)sc1Cl [Example 161]	361
O=C(NCc1ncccc1F)c1ncn(CCNCc2nc3ccccc3[nH]2)n1 [Example 169]	750
O=C(NCc1ncccc1F)c1ncn(CCNCCc2nc3ccccc3[nH]2)n1 [Example 181]	135
O=C(NCc1ncccc1F)c1csc(CCNCC(F)(F)c2nc3ccccc3[nH]2)n1 [Example 196]	1130
O=C(NCc1ncccc1F)c1coc(C2CN(CCc3nc4ccccc4[nH]3)C2)n1 [Example 208]	12
O=C(NCc1ncccc1F)c1cccc(CNCCc2nc3ccccc3[nH]2)c1 [Example 224]	140
O=C(NCc1ncccc1F)c1coc(CCNCCc2nc3c(Cl)cccc3[nH]2)n1 [Example 226]	49
O=C(NCc1ncccc1F)c1coc(CCNCCc2nc3c(F)cccc3[nH]2)n1 [Example 228]	46
Cc1oc(CCNCCc2nc3ccccc3[nH]2)nc1C(=O)NCc1ncccc1F [Example 230]	140
O=C(NCc1ncccc1F)c1coc(C2CN(CCc3nc4c(F)cccc4[nH]3)C2)n1 [Example 239]	36
O=C(NCc1ncccc1F)c1csc(CCNCCc2nc3c(F)cccc3[nH]2)n1 [Example 243]	32
O=C(NCc1ncccc1F)c1coc(CCNCCc2nc3c(F)cc(F)cc3[nH]2)n1 [Example 249]	40
O=C(NCc1ncccc1F)c1coc(CCNCCc2nc3cc(F)ccc3[nH]2)n1 [Example 250]	14
O=C(NCc1ncccc1F)c1cncc(C2CN(CCc3nc4ccccc4[nH]3)C2)c1 [compound 237]	81
